# Test results taken from PubChem BioAssay (NCI).
#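 Five concentrations, 48 hours, 96-well plates. TGI denotes the concentration required for complete inhibition of growth.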
# Tests used:
# Experiment in all cases: NCI-60 cell line screen, 48 h
# MCF7 breast = tested on: MCF7 breast
# SNB-75 CNS = tested on: SNB-75 CNS
# OVCAR-3 ovarian = tested on: OVCAR-3 ovarian
# 786-0 renal = tested on: 786-0 renal
# SR leukemia = tested on: SR leukemia
# MDA-MB-231 breast = tested on: MDA-MB-231 breast
# NCI-H460 lung = tested on: NCI-H460 lung
# SK-MEL-2 melanoma = tested on: SK-MEL-2 melanoma
# ACHN renal = tested on: ACHN renal
# SF-539 CNS = tested on: SF-539 CNS
# OVCAR-4 ovarian = tested on: OVCAR-4 ovarian
# HL-60(TB) leukemia = tested on: HL-60(TB) leukemia
# BT-549 breast = tested on: BT-549 breast
# COLO 205 colon = tested on: COLO 205 colon
# IGROV1 ovarian = tested on: IGROV1 ovarian
# NCI-H23 lung = tested on: NCI-H23 lung
# OVCAR-8 ovarian = tested on: OVCAR-8 ovarian
# NCI-H522 lung = tested on: NCI-H522 lung
# CAKI-1 renal = tested on: CAKI-1 renal
# SW-620 colon = tested on: SW-620 colon
# CCRF-CEM leukemia = tested on: CCRF-CEM leukemia
# MALME-3M melanoma = tested on: MALME-3M melanoma
# SF-295 CNS = tested on: SF-295 CNS
# RXF 393 renal = tested on: RXF 393 renal
# MDA-MB-435 = tested on: MDA-MB-435
# U251 CNS = tested on: U251 CNS
# LOX IMVI melanoma = tested on: LOX IMVI melanoma
# MOLT-4 leukemia = tested on: MOLT-4 leukemia
# DU-145 prostate = tested on: DU-145 prostate
# HOP-62 NSCLC = tested on: HOP-62 NSCLC
# OVCAR-5 ovarian = tested on: OVCAR-5 ovarian
# HCC-2998 colon = tested on: HCC-2998 colon
# RPMI-8226 leukemia = tested on: RPMI-8226 leukemia
# MDA-N = tested on: MDA-N
# K-562 leukemia = tested on: K-562 leukemia
# PC-3 prostate = tested on: PC-3 prostate
# TK-10 renal = tested on: TK-10 renal
# M14 melanoma = tested on: M14 melanoma
# A498 renal = tested on: A498 renal
# NCI-H226 lung = tested on: NCI-H226 lung
# HT29 colon = tested on: HT29 colon
# T-47D breast = tested on: T-47D breast
# HCT-116 colon = tested on: HCT-116 colon
# A549 NSCLC = tested on: A549 NSCLC
# SN12C renal = tested on: SN12C renal
# NCI/ADR-RES ovarian = tested on: NCI/ADR-RES ovarian
# UO-31 renal = tested on: UO-31 renal
# EKVX NSCLC = tested on: EKVX NSCLC
# HOP-92 NSCLC = tested on: HOP-92 NSCLC
# UACC-257 melanoma = tested on: UACC-257 melanoma
# KM12 colon = tested on: KM12 colon
# HS 578T breast = tested on: HS 578T breast
# HCT-15 colon = tested on: HCT-15 colon
# SK-MEL-28 melanoma = tested on: SK-MEL-28 melanoma
# SF-268 CNS = tested on: SF-268 CNS
# SK-OV-3 ovarian = tested on: SK-OV-3 ovarian
# UACC-62 melanoma = tested on: UACC-62 melanoma
# SNB-19 CNS = tested on: SNB-19 CNS
# SK-MEL-5 melanoma = tested on: SK-MEL-5 melanoma
structure (smiles),measurement,setting,value
C/C(=N\NC(=S)NCCNC(=S)N/N=C(\C)c1ccccn1)c1ccccn1,TGI,MCF7 breast,> 100 µM
same,TGI,SNB-75 CNS,11.2 µM
same,TGI,OVCAR-3 ovarian,> 100 µM
same,TGI,786-0 renal,6.05 µM
same,TGI,SR leukemia,2.53 µM
same,TGI,MDA-MB-231 breast,> 70.9 µM
same,TGI,NCI-H460 lung,> 20.2 µM
same,TGI,SK-MEL-2 melanoma,> 100 µM
same,TGI,ACHN renal,> 28.5 µM
same,TGI,SF-539 CNS,6.63 µM
same,TGI,OVCAR-4 ovarian,> 71.2 µM
same,TGI,HL-60(TB) leukemia,> 22.6 µM
same,TGI,BT-549 breast,47.8 µM
same,TGI,COLO 205 colon,> 29.2 µM
same,TGI,IGROV1 ovarian,> 31.5 µM
same,TGI,NCI-H23 lung,> 63.8 µM
same,TGI,OVCAR-8 ovarian,> 100 µM
same,TGI,NCI-H522 lung,> 100 µM
same,TGI,CAKI-1 renal,> 89.7 µM
same,TGI,SW-620 colon,> 100 µM
same,TGI,CCRF-CEM leukemia,> 26.1 µM
same,TGI,MALME-3M melanoma,> 78.8 µM
same,TGI,SF-295 CNS,> 100 µM
same,TGI,RXF 393 renal,> 100 µM
same,TGI,MDA-MB-435,> 100 µM
same,TGI,U251 CNS,> 48.6 µM
same,TGI,LOX IMVI melanoma,30.9 µM
same,TGI,MOLT-4 leukemia,> 26 µM
same,TGI,DU-145 prostate,> 100 µM
same,TGI,HOP-62 NSCLC,12.5 µM
same,TGI,OVCAR-5 ovarian,> 100 µM
same,TGI,HCC-2998 colon,> 100 µM
same,TGI,RPMI-8226 leukemia,9.67 µM
same,TGI,MDA-N,> 100 µM
same,TGI,K-562 leukemia,> 100 µM
same,TGI,PC-3 prostate,> 100 µM
same,TGI,TK-10 renal,> 30 µM
same,TGI,M14 melanoma,4.27 µM
same,TGI,A498 renal,37.5 µM
same,TGI,NCI-H226 lung,> 26.9 µM
same,TGI,HT29 colon,> 100 µM
same,TGI,T-47D breast,> 29.3 µM
same,TGI,HCT-116 colon,31.4 µM
same,TGI,A549 NSCLC,> 100 µM
same,TGI,SN12C renal,7.31 µM
same,TGI,NCI/ADR-RES ovarian,6.06 µM
same,TGI,UO-31 renal,> 100 µM
same,TGI,EKVX NSCLC,> 100 µM
same,TGI,HOP-92 NSCLC,> 100 µM
same,TGI,UACC-257 melanoma,22.3 µM
same,TGI,KM12 colon,> 100 µM
same,TGI,HS 578T breast,> 100 µM
same,TGI,HCT-15 colon,> 25.9 µM
same,TGI,SK-MEL-28 melanoma,> 100 µM
same,TGI,SF-268 CNS,49 µM
same,TGI,SK-OV-3 ovarian,> 100 µM
same,TGI,UACC-62 melanoma,11.7 µM
same,TGI,SNB-19 CNS,> 100 µM
Cc1sccc1C(=S)Nc1ccc(Cl)c(/C=N/OC(C)(C)C)c1,TGI,MCF7 breast,26.7 µM
same,TGI,SNB-75 CNS,> 100 µM
same,TGI,OVCAR-3 ovarian,26.8 µM
same,TGI,786-0 renal,49.4 µM
same,TGI,SR leukemia,54.7 µM
same,TGI,MDA-MB-231 breast,27 µM
same,TGI,SK-MEL-2 melanoma,28.8 µM
same,TGI,SF-539 CNS,> 100 µM
same,TGI,OVCAR-4 ovarian,32 µM
same,TGI,HL-60(TB) leukemia,38.6 µM
same,TGI,BT-549 breast,35.2 µM
same,TGI,COLO 205 colon,27.3 µM
same,TGI,IGROV1 ovarian,29.4 µM
same,TGI,NCI-H23 lung,34.5 µM
same,TGI,OVCAR-8 ovarian,34.1 µM
same,TGI,NCI-H522 lung,26.5 µM
same,TGI,CAKI-1 renal,24.4 µM
same,TGI,SW-620 colon,> 100 µM
same,TGI,CCRF-CEM leukemia,> 100 µM
same,TGI,MALME-3M melanoma,31.1 µM
same,TGI,SF-295 CNS,37.3 µM
same,TGI,RXF 393 renal,39 µM
same,TGI,MDA-MB-435,50.9 µM
same,TGI,U251 CNS,62.1 µM
same,TGI,LOX IMVI melanoma,73.9 µM
same,TGI,MOLT-4 leukemia,30.7 µM
same,TGI,DU-145 prostate,29 µM
same,TGI,HOP-62 NSCLC,30.6 µM
same,TGI,OVCAR-5 ovarian,34.7 µM
same,TGI,HCC-2998 colon,30 µM
same,TGI,RPMI-8226 leukemia,27 µM
same,TGI,MDA-N,26.9 µM
same,TGI,PC-3 prostate,32.5 µM
same,TGI,TK-10 renal,36.9 µM
same,TGI,M14 melanoma,33.9 µM
same,TGI,A498 renal,46.8 µM
same,TGI,NCI-H226 lung,29.3 µM
same,TGI,HT29 colon,27.6 µM
same,TGI,T-47D breast,22.8 µM
same,TGI,HCT-116 colon,> 100 µM
same,TGI,A549 NSCLC,63.5 µM
same,TGI,SN12C renal,25.6 µM
same,TGI,NCI/ADR-RES ovarian,45.1 µM
same,TGI,UO-31 renal,25 µM
same,TGI,EKVX NSCLC,42.4 µM
same,TGI,HOP-92 NSCLC,35.3 µM
same,TGI,UACC-257 melanoma,35.1 µM
same,TGI,KM12 colon,28.8 µM
same,TGI,HS 578T breast,62.3 µM
same,TGI,HCT-15 colon,29 µM
same,TGI,SK-MEL-28 melanoma,71 µM
same,TGI,SF-268 CNS,43.9 µM
same,TGI,SK-OV-3 ovarian,79.3 µM
same,TGI,SK-MEL-5 melanoma,25.9 µM
same,TGI,UACC-62 melanoma,34.2 µM
COC(=O)NC(Nc1ccc(Cl)cc1Cl)(C(F)(F)F)C(F)(F)F,TGI,MCF7 breast,> 100 µM
same,TGI,SNB-75 CNS,> 100 µM
same,TGI,OVCAR-3 ovarian,> 100 µM
same,TGI,786-0 renal,> 100 µM
same,TGI,SR leukemia,> 100 µM
same,TGI,MDA-MB-231 breast,> 100 µM
same,TGI,NCI-H460 lung,> 100 µM
same,TGI,SK-MEL-2 melanoma,> 100 µM
same,TGI,ACHN renal,> 100 µM
same,TGI,SF-539 CNS,> 100 µM
same,TGI,HL-60(TB) leukemia,> 100 µM
same,TGI,BT-549 breast,> 100 µM
same,TGI,COLO 205 colon,> 100 µM
same,TGI,IGROV1 ovarian,> 100 µM
same,TGI,NCI-H23 lung,> 100 µM
same,TGI,OVCAR-8 ovarian,> 100 µM
same,TGI,NCI-H522 lung,> 100 µM
same,TGI,CAKI-1 renal,> 100 µM
same,TGI,SW-620 colon,> 100 µM
same,TGI,CCRF-CEM leukemia,> 100 µM
same,TGI,MALME-3M melanoma,> 100 µM
same,TGI,SF-295 CNS,> 100 µM
same,TGI,RXF 393 renal,> 100 µM
same,TGI,MDA-MB-435,> 100 µM
same,TGI,U251 CNS,> 100 µM
same,TGI,LOX IMVI melanoma,> 100 µM
same,TGI,MOLT-4 leukemia,> 100 µM
same,TGI,DU-145 prostate,> 100 µM
same,TGI,HOP-62 NSCLC,> 100 µM
same,TGI,OVCAR-5 ovarian,> 100 µM
same,TGI,HCC-2998 colon,> 100 µM
same,TGI,RPMI-8226 leukemia,> 100 µM
same,TGI,MDA-N,> 100 µM
same,TGI,K-562 leukemia,> 100 µM
same,TGI,PC-3 prostate,> 100 µM
same,TGI,TK-10 renal,> 100 µM
same,TGI,M14 melanoma,> 100 µM
same,TGI,A498 renal,> 100 µM
same,TGI,NCI-H226 lung,> 100 µM
same,TGI,HT29 colon,> 100 µM
same,TGI,T-47D breast,> 100 µM
same,TGI,HCT-116 colon,> 100 µM
same,TGI,A549 NSCLC,> 100 µM
same,TGI,SN12C renal,> 100 µM
same,TGI,NCI/ADR-RES ovarian,> 100 µM
same,TGI,UO-31 renal,94.7 µM
same,TGI,EKVX NSCLC,> 100 µM
same,TGI,HOP-92 NSCLC,> 100 µM
same,TGI,UACC-257 melanoma,> 100 µM
same,TGI,KM12 colon,> 100 µM
same,TGI,HS 578T breast,> 100 µM
same,TGI,HCT-15 colon,> 100 µM
same,TGI,SK-MEL-28 melanoma,> 100 µM
same,TGI,SF-268 CNS,> 100 µM
same,TGI,SK-OV-3 ovarian,> 100 µM
same,TGI,SK-MEL-5 melanoma,> 100 µM
same,TGI,UACC-62 melanoma,> 100 µM
same,TGI,SNB-19 CNS,> 100 µM
